According to US9513299B2, “Methods for the detection and diagnosis of malaria using an electrochemical sensor” (EMPIRE TECHNOLOGY DEVELOPMENT LLC, priority 2010, dated 2016):
“Also recorded” adds a separate entry of the source.

Key:
Type in all cases: biochemical
human hemoglobin (HbA0) = target: T1, human hemoglobin (HbA0) (Homo sapiens, UniProt P68871+P69905); assay: Peroxidase (electrocatalytic) activity of hemoglobin immobilized on nickel coated electrode, cyclic voltammetry with H2O2; conditions: for peroxidase activity of immobilized HbA0: IHP 150 μM or 2,3-DPG 2 mM, versus hemoglobin control (FIG. 5); for peroxidase activity of immobilized HbA0 / Electrocatalytic Activity in Healthy HbA0: 85 mM H2O2; for Electrocatalytic Activity in Healthy HbA0: change after adding modulator, IHP 150 μM, 2,3-DPG 2 mM
T1 construct: purchased Sigma chemicals H-267
T1 sequence (P69905 2-142 limits assumed): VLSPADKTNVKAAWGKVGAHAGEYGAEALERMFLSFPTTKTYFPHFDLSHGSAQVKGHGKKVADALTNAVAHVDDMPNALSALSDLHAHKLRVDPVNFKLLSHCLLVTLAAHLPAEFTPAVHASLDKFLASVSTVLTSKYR
T1 sequence (P68871 2-147 limits assumed): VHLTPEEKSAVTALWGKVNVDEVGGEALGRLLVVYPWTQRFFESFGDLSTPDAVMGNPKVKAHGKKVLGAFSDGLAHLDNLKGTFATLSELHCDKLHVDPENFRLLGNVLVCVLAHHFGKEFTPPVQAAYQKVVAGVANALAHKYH
Protocol: Crystal ferrous human hemoglobin (HbA0) was obtained from Sigma chemicals (H-267). The stock solution was prepared by dissolving 5 mg HbA0 in one milliliter of 0.05 M phosphate buffered saline (pH 7.2) (Sigma chemicals).
For the electrochemical experiments we used a computer controlled Autolab (PGSTAT) modular electrochemical system (Eco Chemie Ultecht, The Netherlands) that was operated with GPES software (Eco Chemie). All experiments were performed in a conventional three-electrode system cell with an Ag/AgCl reference electrode (BAST), a Pt wire as counter electrode, and a nickel coated chip as working electrode at ambient room temperature (21° C.).
Cyclic voltammetry was used for the immobilization of hemoglobin onto nickel coated electrodes following a similar approach as Salimi et al. To immobilize hemoglobin on the electrode surface, the electrodes were immersed in fresh 0.05 M phosphate buffer solution (pH 7.2) containing 5 mg ml-1 hemoglobin and the potential was repetitively cycled (30 scans) from 1 to −0.5 V vs. Ag/AgCI at a scan rate of 100 mV s^−1. After immobilization, the chips were washed thoroughly with phosphate buffer and subsequently subjected to cyclovoltammetric measurements in the presence of 0-8 M urea.
After hemoglobin immobilization the chips were incubated in presence of 0-8 M urea for 30 min. Hydrogen peroxide (85 mM) was added to monitor the peroxidase activity change for the unfolded protein. All the experiments were performed with the setup described for electrochemical measurements. The potential was repetitively cycled (3 scans) from −0.5 to 0.5 V vs. Ag/AgCI at a scan rate of 100 mV s^−1. In a control experiment the same electrochemical measurements were performed on a reference chip without immobilized hemoglobin.
In a control experiment, after the immobilization of hemoglobin on the chip, the tetramer dimer equilibrium was shifted towards dimer by inositol hexaphosphate at a final concentration of 150 μM and electrochemical measurements were performed. The potential was repetitively cycled (3 scans) from −0.5 to 0.5 V vs. Ag/AgCI at a scan rate of 100 mV s^−1 as described before. The peroxidase activity of hemoglobin was also measured under this condition by adding 85 mM hydrogen peroxide. In another control experiment, the same electrochemical and peroxidase activity measurements were performed on immobilized hemoglobin in presence of the tetramer stabilizer 2,3-DPG at a final concentration of 2 mM.

[1] = target: T2, hemoglobin samples from healthy subjects (Homo sapiens, UniProt P68871+P69905); assay: Electrocatalytic activity of immobilized hemoglobin from whole blood in the presence of allosteric modulators (Example 4); conditions: after addition of IHP 150 μM or 2,3-DPG 2 mM; 85 mM H2O2
T2 construct: Hemoglobin from whole blood of test subjects is immobilized to the surface of electrodes; from tissue; host or cells: whole blood of healthy subjects
T2 sequence (P69905 2-142 limits assumed): as the sequence (P69905 2-142 limits assumed) above
T2 sequence (P68871 2-147 limits assumed): as the sequence (P68871 2-147 limits assumed) above
Protocol: (§1) The assay of this example is illustrated in FIG. 8. Hemoglobin from whole blood of test subjects is immobilized to the surface of electrodes in two separate reaction cells as described in Example 1. Hydrogen peroxide at a final concentration of 85 mM is added in PBS to monitor the electrocatalytic activity for the immobilized protein. All the experiments are performed with the setup described above. The potential is repetitively cycled (3 scans) from −0.5 to 0.5 V vs. Ag/AgCl at a scan rate of 100 mV s^−1. This device is linked to a computer to record the current.
(§2) Next, inositol hexaphosphate (IHP) is added to one of the reaction cells at a final concentration of 150 μM. IHP is used to shift the tetramer/dimer equilibrium completely towards dimer. The effects are visualized through electrochemical measurements when the potential is repetitively cycled (3 scans) from −0.5 to 0.5 V vs. Ag/AgCl at a scan rate of 100 mV s^−1.
(§3) 2,3 diphosphoglycerate (2,3-DPG) is added to the second reaction cell at a final concentration of 2 mM. The stabilization of the immobilized HbA0 by 2,3-DPG, will result in higher electrocatalytic activity than normal due to the presence of more tetrameric protein molecules.

[2] = target: T3, hemoglobin samples from malaria patients (Malaria-Infected HbA0) (Homo sapiens, UniProt P68871+P69905); assay: as above; conditions: change after adding modulator; IHP 150 μM, 2,3-DPG 2 mM; 85 mM H2O2
T3 construct: Hemoglobin from whole blood of test subjects is immobilized to the surface of electrodes; from tissue; host or cells: whole blood of malaria patients
T3 sequence (P69905 2-142): as the sequence (P69905 2-142 limits assumed) above
T3 sequence (P68871 2-147): as the sequence (P68871 2-147 limits assumed) above
Protocol: as §1, §2, §3

SMILES	peroxidase activity of immobilized HbA0 (human hemoglobin (HbA0))	Electrocatalytic Activity in Healthy HbA0 (human hemoglobin (HbA0))	current measured at the electrode surface, hemoglobin samples from healthy subjects [1]	Electrocatalytic Activity in Malaria-Infected HbA0 [2]	electrochemical current (peroxidase activity of hemoglobin immobilized chip) (human hemoglobin (HbA0); 0-8 M urea, 30 min incubation, 85 mM H2O2 (FIG. 4))
O=C(O)C(COP(=O)(O)O)OP(=O)(O)O (stereo not drawn) [2,3-DPG, 2,3-diphosphoglycerate]	increased	Increase	increase	not be a significant change; also recorded: No change	
O=P(O)(O)O[C@H]1[C@H](OP(=O)(O)O)[C@@H](OP(=O)(O)O)[C@H](OP(=O)(O)O)[C@@H](OP(=O)(O)O)[C@H]1OP(=O)(O)O [IHP, inositol hexaphosphate]	decrease	Decrease	decrease	not be a significant change; also recorded: No change	
NC(N)=O [urea]					decrease
